From patent US20260216197A1, “WRN HELICASE INHIBITOR” (SUZHOU PUHE BIOPHARMA CO., LTD., priority 2022, published 2026)

Assays:
[1] = target: WRN helicase (Homo sapiens, UniProt Q14191); test: WRN helicase hydrolysis/unwinding of double-stranded DNA (fluorescence); assay type: biochemical
Summary of the method: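 Human WRN helicase preincubated 30 min in the dark with compound (top final concentration 10 μM, 4-fold dilutions). Reaction started with 19-bp double-stranded DNA labelled 3′-TAMRA/5′-BHQ2, run 60 min at room temperature; IC50 from fluorescence change (Ex530/Em590) versus DMSO blank.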

[2] = test system: MSI-H colorectal cancer SW48 cell line; test: 2D anti-proliferative activity, MSI-H SW48 cells (CTG, 5 days); assay type: cell-based
Summary of the method: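 SW48 cells in RPMI 1640/10% FBS were exposed to serially varied compound concentrations for 5 days at 37 °C, 5% CO2. Viability was read as ATP-dependent CellTiter-Glo luminescence after 30 min.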

[3] = test system: MSS colorectal cancer HT-29 cell line; test: 2D anti-proliferative activity, MSS HT-29 cells (CTG, 5 days); assay type: cell-based
Summary of the method: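 HT-29 cells in McCoy's 5A with 10% FBS exposed to compound for 5 days at 37° C, 5% CO2 in 384-well format. Viable cells read as ATP luminescence (CellTiter-Glo) after 30 min.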

[4] = Liver microsome stability test; assay type: in vitro ADME; details: human liver microsomes 0.5 mg/mL, compound 1 μM, NADPH 1 mM, 60 minutes
[5] = Pharmacokinetic evaluation in mice; assay type: in vivo, CD1 female mice
Description: CD1 female mice were used as test animals and the drug was administered orally/intravenously (oral dosage: 10 mg/kg, intravenous dosage: 2 mg/kg).
Assay protocol: The oral group consisted of 3 mice per group (vehicle: 10% Hβ-CD-pH7.4), and the intravenous group consisted of 3 mice per group. […] The blood concentrations in plasma after oral and intravenous administration of mice were determined by LC/MS/MS, respectively.

[6] = test system: SW 48 (MSI-H) colorectal cancer cells; test: In vivo pharmacodynamic assay, SW48 xenograft in nude mice; set-up: species or system BALB/c nude mice; details: 120 mg/kg, QD, oral
Description: In vivo pharmacodynamic assay in BALB/c nude mice. Details are as follows:
SW 48 (MSI-H) colorectal cancer cells were cultured (L15 medium with 10% fetal bovine serum), and then inoculated into 6-8-week old female BALB/c nude mice (weighing about 20 g), wherein all mice were inoculated subcutaneously. The mice were cultured in an SPF-grade experimental environment, and all mice had free access to commercially certified standard diets. When the average tumor volume of the mice grew to about 150 mm^3, the test compound was orally administered daily. The dosage was as follows: blank group vehicle (10% HP-β-CD aqueous solution, pH-7). The dosage of the administration group was 120 mg/kg, 50 mg/kg, or 20 mg/kg, once a day. The tumor volume was measured with a two-dimensional caliper three times a week, and the animals were weighed every day. […] The tumor volume was calculated using the formula: V=½a*b^2, where a represents the long diameter of the tumor, and b represents the short diameter of the tumor.

Chain of WRN helicase (Q14191 whole entry): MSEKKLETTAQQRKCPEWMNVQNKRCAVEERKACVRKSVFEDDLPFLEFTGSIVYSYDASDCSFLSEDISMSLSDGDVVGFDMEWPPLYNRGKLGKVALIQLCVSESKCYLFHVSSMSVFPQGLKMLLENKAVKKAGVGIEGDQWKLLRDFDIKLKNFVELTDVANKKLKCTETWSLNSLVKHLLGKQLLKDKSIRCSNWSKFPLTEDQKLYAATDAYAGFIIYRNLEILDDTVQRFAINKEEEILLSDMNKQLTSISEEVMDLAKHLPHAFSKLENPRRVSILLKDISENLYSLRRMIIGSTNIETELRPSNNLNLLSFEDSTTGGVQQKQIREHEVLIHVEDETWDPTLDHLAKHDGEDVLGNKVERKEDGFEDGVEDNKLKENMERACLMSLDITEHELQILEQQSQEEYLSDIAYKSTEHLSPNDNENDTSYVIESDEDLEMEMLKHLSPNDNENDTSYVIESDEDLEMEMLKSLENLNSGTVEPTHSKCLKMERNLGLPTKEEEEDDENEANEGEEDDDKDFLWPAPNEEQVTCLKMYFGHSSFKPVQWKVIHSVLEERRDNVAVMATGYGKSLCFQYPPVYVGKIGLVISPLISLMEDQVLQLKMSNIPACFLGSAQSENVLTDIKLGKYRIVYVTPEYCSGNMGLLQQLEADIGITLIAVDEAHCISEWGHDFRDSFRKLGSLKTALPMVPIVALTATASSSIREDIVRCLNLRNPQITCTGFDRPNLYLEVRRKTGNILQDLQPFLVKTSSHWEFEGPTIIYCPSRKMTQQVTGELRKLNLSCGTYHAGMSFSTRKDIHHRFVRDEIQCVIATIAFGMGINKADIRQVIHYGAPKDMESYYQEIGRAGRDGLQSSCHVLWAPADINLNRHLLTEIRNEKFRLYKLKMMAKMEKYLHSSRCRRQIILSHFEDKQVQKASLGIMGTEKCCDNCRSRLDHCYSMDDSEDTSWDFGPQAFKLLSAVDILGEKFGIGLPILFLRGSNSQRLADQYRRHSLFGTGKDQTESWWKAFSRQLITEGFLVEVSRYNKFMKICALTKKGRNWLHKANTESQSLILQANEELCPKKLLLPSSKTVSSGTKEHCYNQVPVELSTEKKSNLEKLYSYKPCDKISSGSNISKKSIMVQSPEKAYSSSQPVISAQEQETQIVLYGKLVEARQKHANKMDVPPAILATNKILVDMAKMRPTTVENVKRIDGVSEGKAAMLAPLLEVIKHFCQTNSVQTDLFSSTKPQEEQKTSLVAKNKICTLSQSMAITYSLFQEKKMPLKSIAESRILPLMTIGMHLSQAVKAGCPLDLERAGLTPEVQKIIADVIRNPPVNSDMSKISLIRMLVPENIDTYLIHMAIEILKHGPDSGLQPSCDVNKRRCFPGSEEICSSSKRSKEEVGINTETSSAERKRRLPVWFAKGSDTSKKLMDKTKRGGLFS

SMILES: CCc1c(N2CCN(C(=O)c3ncnc(C)c3O)CC2)c(=O)n2nc(C3=CCOCC3)nc2n1CC(=O)Nc1ccc(C(F)(F)F)c2ccsc12 [Compound H1]
- IC50 [1]: 1.5 nM
- Average value/ Inhibition rate ([2]; 0.038146973 nM): −7.8792
- Test 1/ Inhibition rate ([2]; 0.038146973 nM): −7.3699
- Test 2/ Inhibition rate ([2]; 0.038146973 nM): −8.3885
- Average value/ Inhibition rate ([2]; 0.152587891 nM): −7.2326
- Test 1/ Inhibition rate ([2]; 0.152587891 nM): −8.9847
- Test 2/ Inhibition rate ([2]; 0.152587891 nM): −5.4804
- Average value/ Inhibition rate ([2]; 0.610351563 nM): −7.2423
- Test 1/ Inhibition rate ([2]; 0.610351563 nM): −8.9821
- Test 2/ Inhibition rate ([2]; 0.610351563 nM): −5.5025
- Average value/ Inhibition rate ([2]; 2.44140625 nM): −1.2893
- Test 1/ Inhibition rate ([2]; 2.44140625 nM): −5.0894
- Test 2/ Inhibition rate ([2]; 2.44140625 nM): 2.5108
- Average value/ Inhibition rate ([2]; 9.765625 nM): −9.8115
- Test 1/ Inhibition rate ([2]; 9.765625 nM): −9.6799
- Test 2/ Inhibition rate ([2]; 9.765625 nM): −9.9432
- inhibitory activity on SW48 cells ([2]; 39 nM): high inhibitory activity
- Average value/ Inhibition rate ([2]; 39.0625 nM): 12.6131
- Test 1/ Inhibition rate ([2]; 39.0625 nM): 9.3323
- Test 2/ Inhibition rate ([2]; 39.0625 nM): 15.8938
- Average value/ Inhibition rate ([2]; 156.25 nM): 98.3044
- Test 1/ Inhibition rate ([2]; 156.25 nM): 98.4846
- Test 2/ Inhibition rate ([2]; 156.25 nM): 98.1243
- Average value/ Inhibition rate ([2]; 625 nM): 98.5020
- Test 1/ Inhibition rate ([2]; 625 nM): 98.3268
- Test 2/ Inhibition rate ([2]; 625 nM): 98.6771
- Average value/ Inhibition rate ([2]; 2500 nM): 99.9213
- Test 1/ Inhibition rate ([2]; 2500 nM): 99.6262
- Test 2/ Inhibition rate ([2]; 2500 nM): 100.2164
- Average value/ Inhibition rate ([2]; 10000 nM): 100.6963
- Test 1/ Inhibition rate ([2]; 10000 nM): 100.7430
- Test 2/ Inhibition rate ([2]; 10000 nM): 100.6495
- IC50 ([2]; 5 days): 55 nM
- IC50 [3]: > 10000 nM
- Human Clint μL/min/mg Protein [4]: 14.8 μL/min/mg Protein
- Human Clint/(mL/min/kg) [4]: 18.5 mL/min/kg
- in vivo exposure compared with reference molecule A1 [5]: higher in vivo exposure
- AUC0-24 ([5]; IV 2 mg/kg): 1421 ng·h/mL
- C0 ([5]; IV 2 mg/kg): 3299 ng/mL
- Cl ([5]; IV 2 mg/kg): 23.4 mL/min/kg
- T1/2 ([5]; IV 2 mg/kg): 1.6 h
- AUC0-24 ([5]; PO 10 mg/kg): 5599 ng·h/mL
- Cmax ([5]; PO 10 mg/kg): 4645 ng/mL
- T1/2 ([5]; PO 10 mg/kg): 1.2 h
- Tmax ([5]; PO 10 mg/kg): 0.5 h
- F ([5]; PO 10 mg/kg vs IV 2 mg/kg): 79%
- TGI [6]: 105%
- Tumor volume (mm^3)-D 1 ([6]; day 1): 171 mm^3
- Tumor volume (mm^3)-D 21 ([6]; day 21): 28 mm^3
